Assay results as given in ChEMBL document CHEMBL5055686, “Discovery of AL-GDa62 as a Potential Synthetic Lethal Lead for the Treatment of Gastric Cancer” (J Med Chem, 2021).

Key:
[1] = test system: MCF-10A; assay: Antitumor activity against human spontaneously immortalized wild type MCF-10A cells assessed as cell numbers measured after 48 hrs; type: functional, cell-based; details: Homo sapiens, MCF-10A, 48 h; read-out: EC50
[2] = Ratio of EC50 for antitumor activity against human spontaneously immortalized wild type MCF10A cells assessed as cell numbers measured after 48 hrs to antitumor activity against human spontaneously immortalized CDH-/- MCF10A cells assessed as cell numbers measured after 48 hrs; type: functional, MCF-10A
[3] = test system: MCF-10A; assay: Antitumor activity against human spontaneously immortalized CDH-/- MCF10A cells assessed as cell numbers measured after 48 hrs; type: functional, cell-based; details: Homo sapiens, MCF-10A, 48 h; read-out: EC50
[4] = test system: MCF-10A; assay: Antitumor activity against human spontaneously immortalized CDH-/- MCF10A cells assessed as cell numbers at 3.13 uM measured after 48 hrs; type: functional

SMILES	EC50 [1]	Ratio EC50 [2]	EC50 [3]	inhibition at 3.13 µM [4]
COc1ccc2nc(C)cc(NCc3ccc(C)cc3)c2c1	22.4 µM	1.2	18.8 µM	
COc1ccc2nc(-c3ccc(C)o3)cc(NCc3ccc(F)cc3)c2c1	11.1 µM	1.4	8.3 µM	
COc1ccc2nc(C)cc(SCc3ccccc3)c2c1	37.1 µM	1.2	30.6 µM	
COc1ccc2nc(C)cc(NCc3ccccc3F)c2c1	17 µM	1.2	14 µM	
COc1ccc2nc(C)cc(NCc3ccc(C(F)(F)F)cc3)c2c1	7.6 µM	1.4	7.6 µM	
COc1ccc2nc(C)cc(Nc3ccc(F)cc3)c2c1	29.8 µM	1.1	28 µM	
COc1ccc2nc(C)cc(NCc3ccc(F)cc3)c2c1	12.2 µM	1.5	8.2 µM	
COc1ccc2nc(C)cc(NCc3cccc(OC(F)F)c3)c2c1	14.3 µM	1.3	10.3 µM	
COc1ccc2nc(C)cc(NCc3ccc(F)cc3F)c2c1	15 µM	1.3	11.6 µM	
COc1ccc2nc(C)cc(NCc3cccnc3)c2c1	49.3 µM	1.1	44.8 µM	
COc1ccc2nc(C)cc(NCc3ccc(OC)c(F)c3)c2c1	10.3 µM	1.1	9 µM	
COc1ccc2nc(C)cc(SCc3ccc(F)cc3)c2c1	50.5 µM	1.2	41 µM	
COc1ccc2nc(CO)cc(NCc3ccc(F)cc3)c2c1	31 µM	1.5	20.8 µM	10%
CCCCCCOc1ccc2nc(C)cc(NCc3ccc(F)cc3)c2c1	9.1 µM	1	8.8 µM	
COc1ccc2nc(C)cc(NCc3cccc(N(C)C)c3)c2c1	14 µM	1	14 µM	
CCCOc1ccc2nc(C)cc(NCc3ccc(F)cc3)c2c1	14.3 µM	1.5	9.8 µM	

SMILES	EC50 [1]	Ratio EC50 [2]	EC50 [3]	inhibition at 3.13 µM [4]
COc1cc2c(NCc3ccc(F)cc3)cc(C)nc2cc1OCCCN1CCCC1	2.1 µM	1.1	1.9 µM	
COc1ccc2nc(C)cc(NCc3cccc(F)c3)c2c1	14.7 µM	1.3	11.3 µM	
COc1ccc2nc(C)cc(NCc3ccncc3)c2c1	41.6 µM	1	40.9 µM	
COc1ccc2nc(C)cc(NCc3ccc(F)c(OC)c3)c2c1	12.9 µM		9.5 µM	
COc1ccc2nc(C)cc(Nc3ccccc3)c2c1	15.9 µM	0.9	17.6 µM	
COc1ccc2nc(C)cc(NCc3ccccc3)c2c1	28.6 µM	1.1	25.9 µM	
Cc1cc(NCc2ccc(F)cc2)c2ccccc2n1	20.1 µM	1.3	15.4 µM	
COc1cc2c(NCc3ccc(F)cc3)cc(-c3ccc(C)o3)nc2cc1OCCCN1CCCC1	2.1 µM	1.1	1.8 µM	
CCCCCCCOc1cc2nc(C)cc(NCc3ccc(F)cc3)c2cc1OC	2.2 µM		1.7 µM	
COc1ccc2nc(C)cc(NCc3ccc(F)c(F)c3)c2c1	12 µM	1.3	9.1 µM	
COc1ccc2nc(COCCCCCCN=[N+]=[N-])cc(NCc3ccc(F)cc3)c2c1.O=C(O)C(F)(F)F	8.9 µM	1.1	8.4 µM	
COc1ccc2nc(C)cc(NCc3cccc4ccccc34)c2c1	50 µM	12	4.1 µM	
COc1cccc(CNc2cc(C)nc3ccc(OCCCN4CCCC4)cc23)c1	3.6 µM	1.2	3.6 µM	
COc1ccc2nc(C)cc(NCc3ccc(OC(F)F)cc3)c2c1	14.7 µM	1.4	10.4 µM	
COc1ccc2nccc(NCc3ccc(F)cc3)c2c1	16.4 µM	1.2	13.3 µM	
